Data set [1] deals with Escherichia coli IAM-1264. Briefly: Minimum inhibitory concentration, standard serial dilution method. It counts as cell-based. The settings on record: 37° C.; for MIC: Escherichia coli, IAM1264, 24 h, inoculum size 1.9×10^5, Brain heart infusion broth. As to the method:
(§1) The minimum inhibitory concentration (mcg/ml) of a variety of the sugar ureide and thioureide derivatives according to this invention against various bacteria was determined in accordance with a standard serial dilution method using as medium Brain heart infusion broth (Difco) at 37° C. the determination being made after 24 hours incubation. The results are shown in Table 1 together with the results of test for ampicillin as reference.

The next data set has as its system Klebsiella pneumoniae. The description is as above. It counts as cell-based. The settings on record: 37° C.; for MIC: Klebsiella pneumoniae, 24 h, inoculum size 1.3×10^5, Brain heart infusion broth. As for the experimental part:
as §1

The next data set relates to Proteus vulgaris OX 19. Described as above. In kind it is cell-based. The settings on record: 37° C.; for MIC: Proteus vulgaris, OX19, 24 h, inoculum size 1.2×10^5, Brain heart infusion broth; for MIC Proteus vulgaris OX 19: inoculum size 1.2×10^5, Brain heart infusion broth, 24 hours. As to the method:
as §1

Data set [2] relates to Pseudomonas aeruginosa IAM-1007. Described as above. It counts as cell-based. Particulars: 37° C.; for MIC: Pseudomonas aeruginosa, IAM1007, 24 h, inoculum size 1.3×10^5, Brain heart infusion broth. As to the method: as §1
The subject of the next data set is Salmonella typhi O-901-W. The description is as above. It counts as cell-based. The settings on record: 37° C.; for MIC: Salmonella enterica, TYPHI, 24 h, inoculum size 3.5×10^5, Brain heart infusion broth; for MIC Salmonella typhi O-901-W: inoculum size 3.5×10^5, Brain heart infusion broth, 24 hours. As for the experimental part:
as §1

Data set [3] deals with Staphylococcus aureus 209 P. Described as above. Particulars: inoculum size 3.8×10^5, Brain heart infusion broth, 37° C., 24 hours; for MIC: Staphylococcus aureus, 209P. It counts as cell-based. As to the method:
as §1

In a further data set the test system is mice. Briefly: LDo value for mice by oral administration. It counts as in vivo.
Data set [4] concerns Staphylococcus aureus No. 26. Briefly: Minimum inhibitory concentration, standard serial dilution method. It counts as cell-based. The settings on record: 37° C.; for MIC: Staphylococcus aureus, NO.26, 24 h, inoculum size 2.3×10^5, Brain heart infusion broth. As for the experimental part: as §1
[5] abbreviates: inoculum size 1.3×10^5, Brain heart infusion broth, 24 hours.

Each structure is given as a SMILES string. In brackets after ≈: the same amount, converted by molar mass.

`CC(=O)OC[C@@H](OC(C)=O)[C@@H](OC(C)=O)[C@H](OC(C)=O)[C@@H](OC(C)=O)C(=O)NC(=S)N[C@@H](C(=O)N[C@@H]1C(=O)N2C(C(=O)O)=C(C)CS[C@H]12)c1ccccc1` [Example 28, 7-[D-α-(2,3,4,5,6-penta-O-acetyl-D-gluconylthioureido)-phenylacetamido] -3-methyl-3-cephem-4-carboxylic acid]: the MIC (in general, the lowest concentration that inhibits growth of the organism) in data set [1] was greater than 100 µg/mL; against Klebsiella pneumoniae, greater than 100 µg/mL; against Proteus vulgaris OX 19 it was 100 µg/mL (≈ 126 µM); in data set [2] it was greater than 100 µg/mL; in the data set with Salmonella typhi O-901-W it was greater than 100 µg/mL; in data set [3], 12.5 µg/mL (≈ 15.7 µM). Besides, the LDo in the data set on mice was greater than 1000 mg/kg.

For `CC(=O)O[C@H]1[C@H](OC(C)=O)[C@@H](NC(=S)N[C@@H](C(=O)N[C@@H]2C(=O)N3[C@@H]2SC(C)(C)[C@@H]3C(=O)O)c2ccccc2)OC[C@H]1OC(C)=O` [Example 13, α-(2,3,4-Tri-O-acetyl-α-D-arabinopyranosylthioureido) benzylpenicillin], the “MIC Escherichia coli IAM-1264” value in data set [1] (inoculum size 1.9×10^5, Brain heart infusion broth, 24 hours) is greater than 100 µg/mL. The “MIC Klebsiella pneumoniae” value against Klebsiella pneumoniae (setting [5]) is greater than 100 µg/mL. For the same molecule, the “MIC Proteus vulgaris OX 19” value against Proteus vulgaris OX 19 amounted to 25 µg/mL (≈ 37.5 µM). Also, the “MIC Pseudomonas aeruginosa IAM-1007” value in data set [2] (setting [5]) was greater than 100 µg/mL. For the same molecule, the “MIC Salmonella typhi O-901-W” value in the data set with Salmonella typhi O-901-W was greater than 100 µg/mL. Also, the “MIC Staphylococcus aureus 209 P” value in data set [3] turned out to be 3.12 µg/mL (≈ 4.68 µM). Moreover, in data set [4] (inoculum size 2.3×10^5, Brain heart infusion broth, 24 hours), the “MIC Staphylococcus aureus No. 26” value is greater than 100 µg/mL.

With `CC1(C)S[C@@H]2[C@H](NC(=O)[C@H](N)c3ccccc3)C(=O)N2[C@H]1C(=O)O` [Ampicillin, α-aminobenzylpenicillin, reference compound], the MIC was 3.12 µg/mL (≈ 8.93 µM) in data set [1]; 1.56 µg/mL (≈ 4.46 µM) against Klebsiella pneumoniae; 100 µg/mL (≈ 286 µM) in the data set on Proteus vulgaris OX 19; greater than 100 µg/mL in data set [2]; 0.39 µg/mL (≈ 1.12 µM) with Salmonella typhi O-901-W; 0.1 µg/mL (≈ 0.286 µM) in data set [3]. This molecule also gave an MIC in data set [4] greater than 100 µg/mL. In the data set with mice, this molecule gave an LDo greater than 1000 mg/kg.

As to `CC(=O)O[C@H]1[C@H](OC(C)=O)[C@@H](NC(=S)N[C@@H](C(=O)N[C@@H]2C(=O)N3[C@@H]2SC(C)(C)[C@@H]3C(=O)O)c2ccccc2)OC[C@H]1OC(C)=O` [Example 10, Triethylammonium α-(2,3,4,-tri-O-acetyl-α-D-arabinopyranosylthioureido) benzylpenicillinate], the MIC in data set [1] was determined as 50 µg/mL; in the data set with Klebsiella pneumoniae, 50 µg/mL; in data set [2] it was 200 µg/mL; in data set [3] it was 3.12 µg/mL; in data set [4], 100 µg/mL. Besides, in the data set on Proteus vulgaris OX 19, the “MIC Proteus vulgaris OX 19” value is greater than 100 µg/mL. In the data set with Salmonella typhi O-901-W, the “MIC Salmonella typhi O-901-W” value was 6.25 µg/mL. The molecule further displayed an LDo with mice greater than 1000 mg/kg.

Consider `CC(=O)OC[C@@H](OC(C)=O)[C@@H](OC(C)=O)[C@H](OC(C)=O)[C@@H](OC(C)=O)C(=O)NC(=S)N[C@@H](C(=O)N[C@@H]1C(=O)N2[C@@H]1SC(C)(C)[C@@H]2C(=O)O)c1ccccc1` [Example 17, α-(2,3,4,5,6-Penta-O-acetyl-D-gluconyl-thioureido) benzylpenicillin], for which the MIC was greater than 100 µg/mL in data set [1]; greater than 100 µg/mL against Klebsiella pneumoniae; 1.56 µg/mL (≈ 1.96 µM) against Proteus vulgaris OX 19; greater than 100 µg/mL in data set [2]; 50 µg/mL (≈ 62.7 µM) against Salmonella typhi O-901-W; 0.78 µg/mL (≈ 0.979 µM) in data set [3]. For the same molecule, in data set [4], the MIC was greater than 100 µg/mL. In the data set on mice, this molecule came in with an LDo greater than 1000 mg/kg.
